# Reference: patent publication US10500158B2, “Cationic lipid” (Kyowa Hakko Kirin Co., Ltd., priority 2014, dated 2019)
# What was measured:
# [1] = Average particle size of the preparations, measured with a particle size measurement apparatus; type: physicochemical; conditions: preparations of Examples 21 and 22 (composition containing the compound and f7 siRNA-1)
# Text: Each sample was weighed to be compound 1/PEG-DMPE Na (manufactured by NOF Corp.)=57.3/5.52 mmol/L, and suspended in an aqueous solution containing hydrochloric acid and ethanol. A homogenous suspension was obtained by repeating stirring with a vortex stirring mixer and heating. This suspension was passed through a 0.05-μm polycarbonate membrane filter at room temperature to obtain a dispersion of compound 1/PEG-DMPE Na particles (liposomes). The average particle size of the obtained liposomes was measured with a particle size measurement apparatus to confirm that the average particle size fell within the range of 30 nm to 100 nm. The obtained liposome dispersion and the f7 siRNA-1 solution were mixed at a ratio of liposome dispersion:f7 siRNA-1 solution=3:1. A 3-fold amount of distilled water was further added thereto and mixed to prepare a compound 1/PEG-DMPE Na/f7 siRNA-1 complex dispersion.
# The average particle sizes of the preparations (compositions) obtained in Examples 21 and 22 were measured using a particle size measurement apparatus.
# The average particle sizes of the preparations (compositions) obtained in Example 23 and Comparative Example 1 were measured using a particle size measurement apparatus.
# factor VII gene = test: Test Example 1: in vivo drug efficacy evaluation, factor VII protein concentration in plasma after i.v. administration of f7 siRNA-1 preparations; parameters: species or system Mice (Balb/c); conditions: mice, intravenous, 0.03 and/or 0.3 mg/kg siRNA (f7 siRNA-1), 48 hours after administration; FIGS. 1 and 2
# Experimental: The preparations (compositions containing compounds 1, 2, and 4 to 7, respectively, and f7 siRNA-1) obtained in Examples 21 and 22 were each subjected to an in vivo drug efficacy evaluation test by a method given below. Each preparation was used after being diluted with physiological saline according to the test.
# Mice (Balb/c, obtained from CLEA Japan, Inc.) were acclimatized and raised. Then, each preparation was intravenously administered at 0.03 and/or 0.3 mg/kg in terms of the siRNA concentration to the mice. 48 hours after the administration, blood was collected, and the collected blood was centrifuged at 8000 rpm at 4° C. for 8 minutes using a high-speed refrigerated microcentrifuge (TOMY MX305; manufactured by Tomy Seiko Co., Ltd.). Absorbance in standard solutions and the plasma samples was measured in ARVO (405 nm) using BIOPHEN VII kit (manufactured by ANIARA, cat#: A221304) according to the method described in the instruction manual of the product. A calibration curve was prepared from the obtained absorbance, and the factor VII protein concentration in plasma was calculated. n=3 for each group.
Particle size of obtained preparation (nm) [1] [nm],SMILES,expression of the factor VII gene (factor VII protein concentration in plasma) (factor VII gene)
113,"CCCCC/C=C\C/C=C\CCCCCCCCC1(CCCCCCCC/C=C\C/C=C\CCCCC)CN(C)C1 [Compound 1, 1-Methyl-3,3-bis[(9Z,12Z)-octadeca-9,12-dien-1-yl]azetidine]",strongly suppressed
116,"CCCCC/C=C\C/C=C\CCCCCCCCC1(CCCCCCCC/C=C\C/C=C\CCCCC)CN(CCC)C1 [Compound 2, 3,3-Bis[(9Z,12Z)-octadeca-9,12-dien-1-yl]-1-propylazetidine]",strongly suppressed
127,"CCCCC/C=C\C/C=C\CCCCCCCCC1(CCCCCCCC/C=C\C/C=C\CCCCC)CN(C(=O)OCCCN(C)C)C1 [Compound 4, 3-(Dimethylamino)propyl 3,3-bis[(9Z,12Z)-octadeca-9,12-dien-1-yl]azetidine-1-carboxylate]",
115,"CCCCCCCC/C=C\CCCCCCCCC1(CCCCCCCC/C=C\CCCCCCCC)CN(C)C1 [Compound 5, 1-Methyl-3,3-bis[(Z)-octadec-9-en-1-yl]azetidine]",
123,"CCCCCC/C=C\CCCCCCCCC1(CCCCCCCC/C=C\CCCCCC)CN(C)C1 [Compound 6, 3,3-Bis[(Z)-hexadec-9-en-1-yl]-1-methylazetidine]",
128,"CCCCC/C=C\C/C=C\CCCCCCCCCCC1(CCCCCCCCCC/C=C\C/C=C\CCCCC)CN(C)C1 [Compound 7, 3,3-Bis[(11Z,14Z)-icosa-11,14-dien-1-yl]-1-methylazetidine]",
